Reference: patent US12187722B2, “Small molecule inhibitors of TEAD transcription factors” (The General Hospital Corporation, priority 2019, dated 2025)
Several values for one entry are separate records, joined by “and”; a condition that tells them apart may be missing. Equal values may be shown once.

Target: TEAD2 (Homo sapiens (Human), UniProt Q15562)
Assay: In vitro palmitoylation (TEAD2 autopalmitoylation, streptavidin blot)
Format: biochemical
Conditions: compound at 10 μM
Description: Recombinant GST-TEAD2 or His6TEAD2 (500 ng) protein was pre-incubated with the compounds at indicated concentrations for 15 min. and then incubated with 1 μM of alkyne palmitoyl-5 CoA (Cayman Chemical) for 30 min or 50 mM MES, pH 6.4, followed by Click reaction with biotin-azide as previously described (Zheng, B. et al., J. Am. Chem. Soc., 2013, 135, 7082-7085). Click reaction was performed with 100 μM biotin-azide, 1 mM tris(2-carboxyethyl) phosphine hydrochloride (TCEP), 100 μM tris[(1-benzyl-1H-1,2,3-triazol-4-yl) methyl] amine (TBTA) and 1 mM CuSO4 for 1 h at RT.
The reactions were terminated by the addition of 12 μL of 6×SDS-sample loading buffer (50 mM Tris-HCl, pH 6.8, 6% SDS, 48% Glycerol, 0.03% Bromophenol Blue, 30 mM EDTA, 9% MeSH). Samples were analysed by SDS-PAGE and Western blot was performed by probing with streptavidin HRP and histidine HRP antibodies independently. Bands intensity obtained from streptavidin blot were quantified using BIORAD, Gel doc system and the percentage of inhibition of Tead2 auto palmitoylation is determined by comparing to the DMSO control treated samples.
These compounds were tested for activity in inhibiting TEAD2 palmitoylation in the assay described above.

Chain of TEAD2 (Q15562 whole entry): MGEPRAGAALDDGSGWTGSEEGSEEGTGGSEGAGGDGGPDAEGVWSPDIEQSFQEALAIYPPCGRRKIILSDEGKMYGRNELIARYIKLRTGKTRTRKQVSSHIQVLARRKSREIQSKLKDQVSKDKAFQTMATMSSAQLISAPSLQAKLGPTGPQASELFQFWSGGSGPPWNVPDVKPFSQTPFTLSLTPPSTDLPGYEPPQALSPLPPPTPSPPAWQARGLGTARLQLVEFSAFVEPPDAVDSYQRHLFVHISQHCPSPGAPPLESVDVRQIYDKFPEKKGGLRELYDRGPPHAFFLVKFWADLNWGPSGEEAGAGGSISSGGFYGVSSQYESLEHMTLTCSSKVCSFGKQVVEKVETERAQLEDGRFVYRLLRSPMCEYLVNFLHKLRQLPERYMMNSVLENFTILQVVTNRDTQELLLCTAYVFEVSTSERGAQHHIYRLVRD

O=C(O)c1cnccc1Nc1ccc(Nc2ccc(C34CC5CC(CC(C5)C3)C4)cc2Cl)cc1 [Compound 75]
inhibition at 10 µM (Table 2): 63%

CN(C(=O)c1ccc(Nc2ccc(C34CC5CC(CC(C5)C3)C4)cc2)cc1)c1ccccc1C(=O)O [Compound 221]
inhibition at 10 µM (Table 2): 61%

O=C(O)c1ccccc1Nc1ccc(Oc2ccc(C(F)(F)F)cc2Cl)cc1 [CP-543]
inhibition at 10 µM (Table 3): 98%

O=C(Nc1ccc(C2CCCCC2)cc1)c1cccc(Nc2ccccc2C(=O)O)c1 [CP-664]
inhibition at 10 µM (Table 3): 50%

O=C(O)C1=C(C(=O)Nc2ccc(Nc3ccc(C45CC6CC(CC(C6)C4)C5)cc3Cl)cc2)CCC1 [compound 290]
inhibition at 10 µM (Table 2): 69%

CN(c1ccc(Nc2cccc(C(=O)NC34CC5CC(CC(C5)C3)C4)c2)cc1)c1ccccc1C(=O)O [Compound 232]
inhibition at 10 µM (Table 2): 33%

Cc1ccccc1-c1ccc(Nc2ccc(Nc3ccccc3C(=O)O)cc2)c(Cl)c1 [Compound 51]
inhibition at 10 µM (Table 2): 79%

O=C(O)c1ccccc1Nc1ccc(N(c2ccc(C34CC5CC(CC(C5)C3)C4)cc2)C(F)(F)F)cc1 [Compound 186]
inhibition at 10 µM (Table 2): 76%

O=C(O)c1ccccc1Nc1ccc(Oc2ccc(C34CC5CC(CC(C5)C3)C4)cc2Cl)cc1 [Compound 166]
inhibition at 10 µM (Table 2): 98%

O=C(O)[C@H]1CCCN1C(=O)Nc1ccc(Nc2ccc(C34CC5CC(CC(C5)C3)C4)cc2Cl)cc1 [Compound 52]
inhibition at 10 µM (Table 2): 79%

CN(c1ccc(OCC23CC4CC(CC(C4)C2)C3)cc1)c1ccc(N(C)c2ccccc2C(=O)O)cc1 [Compound 208]
inhibition at 10 µM (Table 2): 100%

O=C(O)c1ccccc1C(=O)Nc1cccc(Nc2ccc(C34CC5CC(CC(C5)C3)C4)cc2)c1 [compound 292]
inhibition at 10 µM (Table 2): 97%

Cc1cc(N(C)c2ccc(C3CCCCC3)cc2)ccc1Nc1ccc(C(=O)N2CC(C#N)C2)cc1C(=O)O [CP-678]
inhibition at 10 µM (Table 3): 59%

O=C(O)c1cccc(Nc2cccc(Nc3ccc(C4CCCCC4)cc3Cl)c2)n1 [CP-682]
inhibition at 10 µM (Table 3): 51%

CC(C)c1ccccc1-c1ccc(NC(=O)c2cccc(Nc3ccccc3C(=O)O)c2)cc1 [Compound 224]
inhibition at 10 µM (Table 2): 81%

CC12CC3CC(C)(C1)CC(c1ccc(NC(=O)c4ccc(Nc5cccc(C(=O)O)n5)cc4)cc1)(C3)C2 [Compound 227]
inhibition at 10 µM (Table 2): 58%

O=C(O)c1ccccc1Nc1cnc(Oc2ccc(C34CC5CC(CC(C5)C3)C4)cc2Cl)cn1 [compound 440]
inhibition at 10 µM (Table 2): 75%

Cc1cc(N(C)c2ccc(C3CCCCC3)cc2)ccc1Nc1ccc(C2CC2)cc1C(=O)O [CP-630]
inhibition at 10 µM (Table 3): 39%

CN(c1ccc(Nc2cccc(C(=O)O)n2)cn1)c1ccc(C2CCCCC2)cc1Cl [CP-659]
inhibition at 10 µM (Table 3): 46%

O=C(O)C1CCCCC1Nc1ccc(Nc2ccc(C34CC5CC(CC(C5)C3)C4)cc2Cl)cc1 (stereo not shown) [Compound 47]
% of inhibition of TEAD2 palmitoylation at 10 μM (Table 2): 83%

COC(=O)c1ccccc1Nc1ccc(Nc2ccc(C34CC5CC(CC(C5)C3)C4)cc2)cc1 [Compound 2]
inhibition at 10 µM (Table 2): 0%

O=C(O)C1CCCC1Nc1ccc(C23CC4CC(CC(C4)C2)C3)cc1 (stereo not shown) [Compound 65]
inhibition at 10 µM (Table 2): 74%

O=C(O)c1cccnc1Nc1cccc(Nc2ccc(C34CC5CC(CC(C5)C3)C4)cc2Cl)c1 [Compound 114]
inhibition at 10 µM (Table 2): 98%

O=C(O)c1ccccc1Nc1cnc(Oc2ccc(C3CCCCC3)cc2Cl)cn1 [compound 441]
inhibition at 10 µM (Table 2): 79%

O=C(O)c1ccccc1Nc1ccc(S(=O)(=O)Nc2ccc(C34CC5CC(CC(C5)C3)C4)cc2Cl)cc1 [Compound 260]
inhibition at 10 µM (Table 2): 71%

COC(=O)c1ccccc1Nc1cc(Nc2ccc(C34CC5CC(CC(C5)C3)C4)cc2)cc(C(F)(F)F)c1 [Compound 3]
inhibition at 10 µM (Table 2): 0%

CN(c1ccc(S(=O)(=O)N(C)c2ccc(C34CC5CC(CC(C5)C3)C4)cc2)cc1)c1ncccc1C(=O)O [Compound 231]
inhibition at 10 µM (Table 2): 0%

O=C(Nc1ccc(C23CC4CC(CC(C4)C2)C3)cc1)c1ccc(Cl)c(Nc2ncccc2C(=O)O)c1 [Compound 247]
inhibition at 10 µM (Table 2): 95%

COc1ccc(Nc2ccc(N(C)c3ccc(S(F)(F)(F)(F)F)cc3)cc2F)c(C(=O)O)c1 [CP-573]
inhibition at 10 µM (Table 3): 74%

N#Cc1ccccc1Nc1ccc(Nc2ccc(C34CC5CC(CC(C5)C3)C4)cc2Cl)cc1 [Compound 7]
inhibition at 10 µM (Table 2): 30%

O=C(Nc1ccc(C2CCCCC2)cc1Cl)c1cccc(Nc2ccc(OC3CC3)cc2C(=O)O)c1 [CP-672]
inhibition at 10 µM (Table 3): 55%

O=C(NC12CC3CC(CC(C3)C1)C2)c1ccc(Nc2ccc(Nc3ncccc3C(=O)O)cc2)cc1 [Compound 257]
inhibition at 10 µM (Table 2): 55%

COc1ccc(Nc2ccc(N(C)c3nc(C4CCCCC4)cs3)cc2)c(C(=O)O)c1 [CP-597]
inhibition at 10 µM (Table 3): 63%

O=C(O)[C@@H]1CCCN1C(=O)Nc1ccc(Nc2ccc(C34CC5CC(CC(C5)C3)C4)cc2Cl)cc1 [Compound 50]
inhibition at 10 µM (Table 2): 0%

Cc1cc(N(C)c2ccc(C3CCCCC3)cc2)ccc1Nc1ccc(F)cc1C(=O)O [CP-625]
inhibition at 10 µM (Table 3): 87%

O=C(O)c1cccc(Nc2cc(Nc3ccc(C4CCCCC4)cc3Cl)cc(C(F)(F)F)c2)c1 [CP-676]
inhibition at 10 µM (Table 3): 97%

CC(C)COc1ccc(Nc2ccc(N(C)c3ccc(C45CC6CC(CC(C6)C4)C5)cc3)cc2)c(C(=O)O)c1 [CP-453]
inhibition at 10 µM (Table 2): 0%

O=C(O)Cn1cnc2cc(Nc3ccc(C45CC6CC(CC(C6)C4)C5)cc3Cl)ccc21 [Compound 108]
inhibition at 10 µM (Table 2): 86%

O=C(Nc1ccc(C23CC4CC(CC(C4)C2)C3)cc1)c1ccc(Nc2ncccc2C(=O)O)cc1 [Compound 145]
% of inhibition of TEAD2 palmitoylation at 10 μM (Table 2): 61% and 84%

O=C(O)c1ccccc1Nc1cc(F)cc(Nc2ccc(C34CC5CC(CC(C5)C3)C4)cc2)c1 [Compound 30]
inhibition at 10 µM (Table 2): 91%

CN(c1ccc(N(C)c2ccc(C34CC5CC(CC(C5)C3)C4)cc2)c(C(F)(F)F)c1)c1ccccc1C(=O)O [Compound 158]
inhibition at 10 µM (Table 2): 100%

COC(=O)c1ccccc1Nc1ccc(C(=O)Nc2ccc(C34CC5CC(CC(C5)C3)C4)cc2Cl)cc1 [Compound 6]
inhibition at 10 µM (Table 2): 0%

CCCCN(c1ccccc1)c1ccc(Nc2ccc(Nc3ccccc3C(=O)O)cc2)cc1 [Compound 174]
inhibition at 10 µM (Table 2): 85%

COCCOc1ccc(Nc2ccc(N(C)c3ccc(C4CCCCC4)cc3)cc2)c(C(=O)O)c1 [CP-536]
inhibition at 10 µM (Table 3): 84%

O=C(Nc1ccc(C23CC4CC(CC(C4)C2)C3)cc1)c1ccc(C(=O)Nc2ccccc2C(=O)O)cc1 [Compound 225]
inhibition at 10 µM (Table 2): 84%

O=C(O)C1CCCCC1Nc1ccc(Nc2ccc(C34CC5CC(CC(C5)C3)C4)cc2Cl)cc1 (stereo not shown) [Compound 46]
inhibition at 10 µM (Table 2): 76%

CN(c1ccc(Nc2ncccc2C(=O)O)cc1)c1ccc(C2CCCCC2)cc1 [CP-558]
inhibition at 10 µM (Table 3): 66%

CN(c1ccc(Nc2cccc(C(=O)O)n2)cc1)c1ccc(C23CC4CC(CC(C4)C2)C3)cc1 [Compound 193]
inhibition at 10 µM (Table 2): 86%

COc1ccc(Nc2ccc(Oc3ccc(C4CCCCC4)cc3Cl)nc2)c(C(=O)O)c1 [CP-591]
inhibition at 10 µM (Table 3): 88%

COc1ccc(Nc2ccc(N(C)c3ccc(CN4CCCCC4)cc3)cc2)c(C(=O)O)c1 [CP-567]
inhibition at 10 µM (Table 3): 6%

CN(c1ccc(Nc2ccc(C34CC5CC(CC(C5)C3)C4)cc2)cc1)c1ccccc1C(=O)O [Compound 99]
inhibition at 10 µM (Table 2): 85%

CCCCN(c1ccccc1)c1ccc(Nc2ccc(Nc3cccc(C(=O)O)n3)cc2)cc1 [Compound 202]
inhibition at 10 µM (Table 2): 49%

O=C(Nc1ccc(C23CC4CC(CC(C4)C2)C3)cc1)c1cccnc1Nc1cccc(C(F)(F)F)c1
inhibition at 10 µM: 50%

O=C(O)c1cccnc1Nc1ccc(Nc2ccc(C34CC5CC(CC(C5)C3)C4)cc2Cl)nc1 [Compound 91]
inhibition at 10 µM (Table 2): 97%

O=C1CC[n+]2ccccc2N1c1ccc(Nc2ccc(C34CC5CC(CC(C5)C3)C4)cc2Cl)cc1 [Compound 11]
inhibition at 10 µM (Table 2): 0%

COc1ccc(Nc2ccc(N(C)c3cc(Cl)cc(Cl)c3)cc2)c(C(=O)O)c1 [CP-612]
inhibition at 10 µM (Table 3): 86%

COc1ccc(Nc2ccc(N(C)c3ccc(Cl)cc3)cc2)c(C(=O)O)c1 [CP-535]
inhibition at 10 µM (Table 3): 54%

Cc1cc(N(C)c2ccc(C3CCCCC3)cc2)ccc1Nc1ccc(OCC(C)(C)C)cc1C(=O)O [CP-633]
inhibition at 10 µM (Table 3): 25%

O=C(Cc1ccc(Nc2ccc(C34CC5CC(CC(C5)C3)C4)cc2)cc1)Nc1ccccc1C(=O)O [Compound 213]
inhibition at 10 µM (Table 2): 90%

O=C(O)C1CCCC1Nc1ccc(Nc2ccc(C34CC5CC(CC(C5)C3)C4)cc2Cl)cc1 (stereo not shown) [Compound 39]
inhibition at 10 µM (Table 2): 59%

CN(c1ccc(C2CCCCC2)cc1)c1cc(C2CC2)c(Nc2cccc(C(=O)O)n2)cn1 [CP-663]
inhibition at 10 µM (Table 3): 45%

CN(c1ccc(C23CC4CC(CC(C4)C2)C3)cc1)c1cccc(N(C)c2ncccc2C(=O)O)c1 [Compound 140]
inhibition at 10 µM (Table 2): 99%

O=C(O)c1ccccc1Nc1cccc(Nc2ccc(C34CC5CC(CC(C5)C3)C4)cc2)c1 [Compound 25]
inhibition at 10 µM (Table 2): 90%

O=C(NC12CC3CC(CC(C3)C1)C2)c1ccc(Nc2ccc(Nc3ccccc3C(=O)O)cc2)cc1 [Compound 176]
% of inhibition of TEAD2 palmitoylation at 10 μM (Table 2): 89%

COCCC(=O)Nc1ccc(C(=O)O)c(Nc2ccc(N(C)c3ccc(C45CC6CC(CC(C6)C4)C5)cc3)cc2)c1 [CP-473]
inhibition at 10 µM (Table 3): 50%

CN(c1ccc(C23CC4CC(CC(C4)C2)C3)cc1)c1cc(N(C)c2ncccc2C(=O)O)cc(C(F)(F)F)c1 [Compound 152]
inhibition at 10 µM (Table 2): 102%

O=C(O)c1cncc(Nc2cc(C(F)(F)F)cc3[nH]c4ccc(C56CC7CC(CC(C7)C5)C6)cc4c23)c1 [Compound 151]
inhibition at 10 µM (Table 2): 101%
